From patent US8921376B2, “Pyrrolopyridines useful as inhibitors of protein kinase” (Vertex Pharmaceuticals Incorporated, priority 2005, dated 2014)

Key:
Assay type in all cases: biochemical
[1] = molecular target: JAK2 (Homo sapiens, UniProt O60674); assay: JAK2 inhibition assay (as Example 3 with JAK-2 enzyme)
Procedure, shortened: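 Radiometric JAK2 kinase assay: poly(Glu)4Tyr substrate at final 15 μM, ATP at final 12 μM with [33P]; buffer 100 mM HEPES pH 7.4, 1 mM DTT, 10 mM MgCl2, 25 mM NaCl, 0.01% BSA. 20 min at 25 °C, TCA-stopped, 33P incorporation counted after filter capture.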

[2] = molecular target: T1, JAK3 (Homo sapiens, UniProt P52333); assay: JAK3 inhibition assay (33P incorporation into poly(Glu)4Tyr)
T1 sequence (P52333 1-1124): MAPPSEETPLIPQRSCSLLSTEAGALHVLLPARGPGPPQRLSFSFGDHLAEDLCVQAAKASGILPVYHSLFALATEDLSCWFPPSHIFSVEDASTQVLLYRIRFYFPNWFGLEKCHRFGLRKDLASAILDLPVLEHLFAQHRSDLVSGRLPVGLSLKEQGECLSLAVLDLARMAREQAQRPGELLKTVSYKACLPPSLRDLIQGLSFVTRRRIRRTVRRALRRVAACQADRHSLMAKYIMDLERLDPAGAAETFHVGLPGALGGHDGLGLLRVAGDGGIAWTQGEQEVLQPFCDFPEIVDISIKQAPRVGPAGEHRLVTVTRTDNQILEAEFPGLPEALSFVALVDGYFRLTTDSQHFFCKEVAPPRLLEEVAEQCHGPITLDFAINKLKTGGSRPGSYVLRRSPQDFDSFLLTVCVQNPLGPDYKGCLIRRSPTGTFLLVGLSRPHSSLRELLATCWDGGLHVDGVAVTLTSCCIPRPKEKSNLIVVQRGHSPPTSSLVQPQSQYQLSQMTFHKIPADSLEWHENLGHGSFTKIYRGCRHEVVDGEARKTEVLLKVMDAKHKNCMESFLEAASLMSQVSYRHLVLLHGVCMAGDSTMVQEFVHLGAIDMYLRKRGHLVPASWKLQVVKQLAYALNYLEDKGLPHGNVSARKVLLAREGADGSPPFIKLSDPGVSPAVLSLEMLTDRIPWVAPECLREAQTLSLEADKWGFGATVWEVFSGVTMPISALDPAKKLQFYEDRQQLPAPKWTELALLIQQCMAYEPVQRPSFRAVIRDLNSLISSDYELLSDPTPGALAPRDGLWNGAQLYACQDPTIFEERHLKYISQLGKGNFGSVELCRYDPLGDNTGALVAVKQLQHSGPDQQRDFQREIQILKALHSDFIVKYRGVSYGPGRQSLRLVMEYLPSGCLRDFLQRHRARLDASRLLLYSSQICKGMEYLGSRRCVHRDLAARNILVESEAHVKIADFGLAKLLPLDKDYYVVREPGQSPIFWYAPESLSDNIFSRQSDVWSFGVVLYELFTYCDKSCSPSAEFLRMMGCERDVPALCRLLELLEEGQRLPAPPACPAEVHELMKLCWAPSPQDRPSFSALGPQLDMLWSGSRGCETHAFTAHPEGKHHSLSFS
Procedure, shortened: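 Human JAK3 at 1 nM phosphorylated 1 μM poly(Glu)4Tyr using 5 μM [33P]ATP in HEPES pH 7.4 buffer with MgCl2, DTT and BSA. Reactions ran 20 min at 25° C. and were stopped with TCA. 33P incorporation was measured by scintillation after glass-fiber filter capture.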

[3] = molecular target: ROCK I (Homo sapiens, UniProt Q13464); assay: ROCK-I inhibition assay (radioactive enzyme assay, MBP substrate)
ROCK I, sequence (Q13464 whole entry): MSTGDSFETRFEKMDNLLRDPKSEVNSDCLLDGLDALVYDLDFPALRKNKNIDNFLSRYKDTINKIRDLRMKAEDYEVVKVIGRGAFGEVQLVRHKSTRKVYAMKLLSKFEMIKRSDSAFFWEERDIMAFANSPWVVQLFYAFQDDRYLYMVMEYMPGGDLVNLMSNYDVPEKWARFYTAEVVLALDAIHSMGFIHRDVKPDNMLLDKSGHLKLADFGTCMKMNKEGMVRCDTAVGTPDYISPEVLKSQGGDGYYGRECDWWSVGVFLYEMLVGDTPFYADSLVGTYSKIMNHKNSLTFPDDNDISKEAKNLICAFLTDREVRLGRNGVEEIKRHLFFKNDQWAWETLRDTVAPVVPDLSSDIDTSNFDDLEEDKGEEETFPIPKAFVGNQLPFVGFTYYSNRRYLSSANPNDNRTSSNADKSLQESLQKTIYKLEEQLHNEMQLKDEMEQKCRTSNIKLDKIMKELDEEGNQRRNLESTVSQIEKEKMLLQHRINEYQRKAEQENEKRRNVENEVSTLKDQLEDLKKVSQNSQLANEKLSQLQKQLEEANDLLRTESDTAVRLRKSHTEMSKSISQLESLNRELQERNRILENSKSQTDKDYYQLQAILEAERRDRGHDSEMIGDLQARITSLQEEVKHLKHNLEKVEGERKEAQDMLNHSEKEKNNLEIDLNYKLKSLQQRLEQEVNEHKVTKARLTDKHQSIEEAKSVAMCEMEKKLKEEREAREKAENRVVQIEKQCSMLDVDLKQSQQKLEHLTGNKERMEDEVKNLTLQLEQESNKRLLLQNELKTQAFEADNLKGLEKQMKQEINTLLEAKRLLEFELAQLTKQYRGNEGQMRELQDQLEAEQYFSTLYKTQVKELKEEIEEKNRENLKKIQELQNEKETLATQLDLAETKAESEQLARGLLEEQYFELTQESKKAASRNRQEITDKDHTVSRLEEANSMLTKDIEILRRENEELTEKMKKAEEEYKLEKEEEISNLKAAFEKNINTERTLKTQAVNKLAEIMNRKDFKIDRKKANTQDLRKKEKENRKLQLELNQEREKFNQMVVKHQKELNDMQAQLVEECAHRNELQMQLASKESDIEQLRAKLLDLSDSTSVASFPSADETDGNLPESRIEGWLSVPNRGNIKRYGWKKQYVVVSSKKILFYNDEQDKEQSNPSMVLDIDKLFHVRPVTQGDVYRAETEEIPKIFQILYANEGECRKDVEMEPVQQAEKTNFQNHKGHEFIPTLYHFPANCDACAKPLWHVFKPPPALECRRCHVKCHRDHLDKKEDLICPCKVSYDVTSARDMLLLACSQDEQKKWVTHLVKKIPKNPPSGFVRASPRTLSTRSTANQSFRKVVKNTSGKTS
Procedure, shortened: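 Human ROCK at 5 nM phosphorylated 27 μM myelin basic protein with 13 μM [γ-33P]ATP (final) in HEPES pH 7.5, MgCl2, NaCl, DTT and 1.5% DMSO. Reactions ran 2 h at room temperature before TCA quench and filter-plate scintillation counting. After background subtraction, data were fit to give Ki(app).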

[4] = Table 6, enzyme inhibition data (Ki)
[5] = enzyme inhibition, Ki(app), Table 5

JAK2, sequence (O60674 whole entry): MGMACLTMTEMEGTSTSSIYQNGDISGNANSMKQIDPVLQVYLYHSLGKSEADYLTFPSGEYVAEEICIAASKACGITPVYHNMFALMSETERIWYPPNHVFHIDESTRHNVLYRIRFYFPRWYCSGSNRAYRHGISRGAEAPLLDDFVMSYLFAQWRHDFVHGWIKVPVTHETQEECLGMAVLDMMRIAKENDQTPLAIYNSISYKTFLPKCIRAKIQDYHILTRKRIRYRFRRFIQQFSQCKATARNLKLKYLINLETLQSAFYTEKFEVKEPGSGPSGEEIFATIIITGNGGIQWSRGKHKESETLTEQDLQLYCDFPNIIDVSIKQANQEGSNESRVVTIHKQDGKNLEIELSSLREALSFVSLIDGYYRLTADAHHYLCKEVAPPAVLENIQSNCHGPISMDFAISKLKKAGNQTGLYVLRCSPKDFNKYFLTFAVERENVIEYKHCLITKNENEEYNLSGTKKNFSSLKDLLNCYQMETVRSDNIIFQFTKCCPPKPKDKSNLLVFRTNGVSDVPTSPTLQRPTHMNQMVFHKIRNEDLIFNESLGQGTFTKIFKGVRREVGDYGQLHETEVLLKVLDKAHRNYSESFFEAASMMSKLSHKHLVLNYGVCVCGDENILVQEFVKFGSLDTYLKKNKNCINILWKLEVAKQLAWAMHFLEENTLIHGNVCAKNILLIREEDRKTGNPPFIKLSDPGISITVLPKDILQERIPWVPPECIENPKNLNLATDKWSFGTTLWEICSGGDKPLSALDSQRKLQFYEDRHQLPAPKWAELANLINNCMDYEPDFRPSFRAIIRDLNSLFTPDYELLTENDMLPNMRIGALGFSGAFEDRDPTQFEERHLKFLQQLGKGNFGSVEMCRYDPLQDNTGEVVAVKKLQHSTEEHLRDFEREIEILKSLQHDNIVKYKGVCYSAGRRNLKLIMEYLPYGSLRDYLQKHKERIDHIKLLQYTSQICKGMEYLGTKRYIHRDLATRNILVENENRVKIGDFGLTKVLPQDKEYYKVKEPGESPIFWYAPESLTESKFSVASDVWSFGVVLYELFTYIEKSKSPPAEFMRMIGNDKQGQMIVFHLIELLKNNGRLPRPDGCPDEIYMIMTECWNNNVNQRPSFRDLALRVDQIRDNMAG

| Ki [1, 4] [nM] | Ki [2, 4] [nM] | Ki [3, 4] [nM] | Ki ([1]; enzyme inhibition, Table 5) [nM] | Ki ([2]; enzyme inhibition, Table 5) [nM] | Ki [3, 5] [nM] | SMILES |
| --- | --- | --- | --- | --- | --- | --- |
| < 500 | < 500 | < 500 |  |  |  | c1cc(-c2cn[nH]c2)c2cc[nH]c2n1 [compound 250] |
| < 500 | < 500 | 500 to 5000 |  |  |  | CCCN(CCC#N)C(=O)c1cc(-c2c(Cl)cnc3[nH]ccc23)c[nH]1 [compound 335] |
| < 500 | < 500 | 500 to 5000 |  |  |  | O=C(NC1CC1)c1cc(-c2c(Cl)cnc3[nH]ccc23)c[nH]1 [compound 281] |
|  |  |  | < 500 | < 500 | < 500 | N#CC1(c2cccc(-c3ccnc4[nH]ccc34)n2)CC1 [compound 101, 1-(6-(1H-pyrrolo[2,3-b]pyridin-4-yl)pyridin-2-yl)cyclopropanecarbonitrile] |
| < 500 | < 500 | > 4000 |  |  |  | CCCS(=O)(=O)N1CC[C@@H](Nc2c(Cl)cnc3[nH]ccc23)C1 [compound 180] |
|  |  |  | > 5000 | > 5000 | 500 to 5000 | CN1CCCC1CCNc1cccc(-c2ccnc3[nH]ccc23)n1 (stereo not drawn) [compound 37, N-(2-(1-Methylpyrrolidin-2-yl)ethyl)-6-(1H-pyrrolo[2,3-b]pyridin-4-yl)pyridin-2-amine] |
| < 500 | < 500 | < 500 |  |  |  | CC[C@@H](C)NC(=O)c1cc(-c2ccnc3[nH]ccc23)c[nH]1 [compound 289] |
| < 500 | < 500 | < 500 |  |  |  | CCCN(CC1CC1)C(=O)c1cc(-c2ccnc3[nH]ccc23)c[nH]1 [compound 301] |
| < 500 | < 500 | < 500 |  |  |  | CCC(CC)NC(=O)c1cc(-c2ccnc3[nH]ccc23)c[nH]1 [compound 284] |
|  |  |  | < 500 | 500 to 5000 | 500 to 5000 | CN(Cc1cccnc1)c1cccc(-c2ccnc3[nH]ccc23)n1 [compound 56, N-Methyl-N-((pyridin-3-yl)methyl)-6-(1H-pyrrolo[2,3-b]pyridin-4-yl)pyridin-2-amine] |
| < 500 | < 500 | 500 to 5000 |  |  |  | Clc1cnc2[nH]ccc2c1-c1ccoc1 [compound 139] |
|  |  |  | < 500 | 500 to 5000 | 500 to 5000 | CC(=O)N1CCCN(c2cccc(-c3ccnc4[nH]ccc34)n2)CC1 [compound 18] |
| < 500 | < 500 | 500 to 5000 |  |  |  | CCCOC(=O)N1CCCC(Nc2c(Cl)cnc3[nH]ccc23)C1 (stereo not drawn) [compound 174] |
| < 500 | < 500 | < 500 |  |  |  | CN(CCC#N)C(=O)c1cc(-c2ccnc3[nH]ccc23)c[nH]1 [compound 306] |
| 500 to 5000 | < 500 | > 4000 |  |  |  | C[C@@H](Nc1nc(-c2ccnc3[nH]ccc23)ncc1F)C(=O)NCC(F)(F)F [compound 201] |
| < 500 | < 500 | 500 to 5000 |  |  |  | Cc1csc(-c2c(Cl)cnc3[nH]ccc23)c1 [compound 144] |
| 500 to 5000 | 500 to 5000 | > 4000 |  |  |  | C[C@@H](Nc1nc(-c2ccnc3[nH]ccc23)nc2ccccc12)C(=O)NCC(F)(F)F [compound 200] |
| < 500 | 500 to 5000 | 500 to 5000 |  |  |  | CC(C)CCNC(=O)c1csc(-c2ccnc3[nH]ccc23)n1 [compound 413] |
|  |  |  | 500 to 5000 | 500 to 5000 | 500 to 5000 | c1ncc(-c2ccnc3[nH]ccc23)cn1 [compound 104, 4-Pyrimidin-5-yl-1H-pyrrolo[2,3-b]pyridine] |
| < 500 | < 500 | 500 to 5000 |  |  |  | CNC(=O)c1cc(-c2c(Cl)cnc3[nH]ccc23)c[nH]1 [compound 277] |
|  |  |  | 500 to 5000 | 500 to 5000 | 500 to 5000 | C[C@H](Nc1ccnc(-c2ccnc3[nH]ccc23)n1)C(=O)NC1CC1 [compound 130] |
| 500 to 5000 | 500 to 5000 | < 500 |  |  |  | O=C(c1cc(-c2ccnc3[nH]ccc23)c[nH]1)N1CCC(O)C1 (stereo not drawn) [compound 377] |

| Ki [1, 4] [nM] | Ki [2, 4] [nM] | Ki [3, 4] [nM] | Ki ([1]; enzyme inhibition, Table 5) [nM] | Ki ([2]; enzyme inhibition, Table 5) [nM] | Ki [3, 5] [nM] | SMILES |
| --- | --- | --- | --- | --- | --- | --- |
| > 5000 | > 5000 | > 4000 |  |  |  | CCCNC(=O)c1ccccc1-c1ccnc2[nH]ccc12 [compound 258] |
| < 500 | 500 to 5000 | < 500 |  |  |  | CC[C@H](C)NC(=O)c1cc(-c2ccnc3[nH]ccc23)c[nH]1 [compound 290] |
| < 500 | < 500 | 500 to 5000 |  |  |  | COC(=O)N1CCCC(Nc2c(Cl)cnc3[nH]ccc23)C1 (stereo not drawn) [compound 173] |
| < 500 | < 500 | > 4000 |  |  |  | COCCN(CCOC)C(=O)c1cc(-c2c(Cl)cnc3[nH]ccc23)c[nH]1 [compound 339] |
| > 5000 | > 5000 | > 4000 |  |  |  | c1ccc(Oc2ccccc2-c2ccnc3[nH]ccc23)cc1 [compound 240] |
|  |  |  | < 500 | < 500 | < 500 | Oc1cccc(-c2ccnc3[nH]ccc23)c1 [compound 105, 3-(1H-Pyrrolo[2,3-b]pyridin-4-yl)-phenol] |
| 500 to 5000 | 500 to 5000 | > 4000 |  |  |  | FC(F)(F)Oc1ccccc1-c1ccnc2[nH]ccc12 [compound 206] |
| < 500 | < 500 | < 500 |  |  |  | CN(CCc1ccccn1)C(=O)c1cc(-c2ccnc3[nH]ccc23)c[nH]1 [compound 367] |
| < 500 | < 500 | < 500 |  |  |  | C[C@@H]1CC[C@@H](C)N1C(=O)c1csc(-c2ccnc3[nH]ccc23)n1 [compound 416] |
|  |  |  | 500 to 5000 | < 500 | < 500 | c1cc(-c2ccnc3[nH]ccc23)[nH]n1 [compound 106, 4-(2H-Pyrazol-3-yl)-1H-pyrrolo[2,3-b]pyridine] |
| 500 to 5000 | < 500 | < 500 |  |  |  | Fc1ccccc1-c1ccnc2[nH]ccc12 [compound 236] |
| > 5000 | > 5000 | > 4000 |  |  |  | CCNC(=O)c1ccccc1-c1ccnc2[nH]ccc12 [compound 257] |
| < 500 | < 500 | < 500 |  |  |  | CCCCN(CC#N)C(=O)c1ccc(-c2ccnc3[nH]ccc23)s1 [compound 317] |
| < 500 | < 500 | < 500 |  |  |  | O=C(CC1CCCC1)Nc1nc(-c2ccnc3[nH]ccc23)cs1 [compound 379] |
| < 500 | < 500 | < 500 |  |  |  | CC(C)CN(C)C(=O)c1ccc(-c2ccnc3[nH]ccc23)s1 [compound 326] |
| < 500 | < 500 | > 4000 |  |  |  | O=C(c1cc(-c2c(Cl)cnc3[nH]ccc23)c[nH]1)N1CCC(O)C1 (stereo not drawn) [compound 350] |
| < 500 | < 500 | < 500 |  |  |  | CC(C)CN(CC(C)C)C(=O)c1cc(-c2ccnc3[nH]ccc23)c[nH]1 [compound 311] |
|  |  |  | > 5000 | 500 to 5000 | 500 to 5000 | CC(C)(Nc1nc(-c2ccnc3[nH]ccc23)nc2ccccc12)C(=O)NCC(F)(F)F [compound 132] |
| 500 to 5000 | > 5000 | > 4000 |  |  |  | CC(C)(C)OC(=O)n1cccc1-c1c(Cl)cnc2[nH]ccc12 [compound 143] |
| < 500 | < 500 | 500 to 5000 |  |  |  | CN(CCC#N)C(=O)c1cc(-c2c(F)cnc3[nH]ccc23)c[nH]1 [compound 386] |
| < 500 | < 500 | < 500 |  |  |  | CC(C)NC(=O)c1cc(-c2ccnc3[nH]ccc23)c[nH]1 [compound 264] |
|  |  |  | 500 to 5000 | > 5000 | 500 to 5000 | CC(C)(CO)CNc1cccc(-c2ccnc3[nH]ccc23)n1 [compound 57, 3-(6-(1H-Pyrrolo[2,3-b]pyridin-4-yl)pyridin-2-ylamino)-2,2-dimethylpropan-1-ol] |
